Results from US8822451B2, “Modulators of ATP-binding cassette transporters” (Vertex Pharmaceuticals Incorporated, priority 2005, dated 2014).
pEC50: −log10 of the molar value.

Molecular target: T1, […]F508-CFTR (Homo sapiens, UniProt P13569, DEL508-508)
T1 construct: expressed in transfected cells
Test: Assay results of Table 3: ΔF508-CFTR modulation, membrane potential optical assay (assay format not stated)
Assay type: cell-based
Settings: NIH3T3 mouse fibroblasts stably expressing […]F508-CFTR (optical assays); for Efficacy: efficacy range; for pEC50: potency range
From the text: A. Membrane Potential Optical Methods for Assaying […]F508-CFTR Modulation Properties of Compounds
The optical membrane potential assay utilized voltage-sensitive FRET sensors described by Gonzalez and Tsien (See, Gonzalez, J. E. and R. Y. Tsien (1995) “Voltage sensing by fluorescence resonance energy transfer in single cells” Biophys J 69(4): 1272-80, and Gonzalez, J. E. and R. Y. Tsien (1997) “Improved indicators of cell membrane potential that use fluorescence resonance energy transfer” Chem Biol 4(4): 269-77) in combination with instrumentation for measuring fluorescence changes such as the Voltage/Ion Probe Reader (VIPR) (See, Gonzalez, J. E., K. Oades, et al. (1999) “Cell-based assays and instrumentation for screening ion-channel targets” Drug Discov Today 4(9): 431-439).
These voltage sensitive assays are based on the change in fluorescence resonant energy transfer (FRET) between the membrane-soluble, voltage-sensitive dye, DiSBAC2(3), and a fluorescent phospholipid, CC2-DMPE, which is attached to the outer leaflet of the plasma membrane and acts as a FRET donor. Changes in membrane potential (Vm) cause the negatively charged DiSBAC2(3) to redistribute across the plasma membrane and the amount of energy transfer from CC2-DMPE changes accordingly. The changes in fluorescence emission were monitored using VIPR™ II, which is an integrated liquid handler and fluorescent detector designed to conduct cell-based screens in 96- or 384-well microtiter plates.
To identify small molecules that correct the trafficking defect associated with ΔF508-CFTR; a single-addition HTS assay format was developed. The cells were incubated in serum-free medium for 16 hrs at 37° C. in the presence or absence (negative control) of test compound. As a positive control, cells plated in 384-well plates were incubated for 16 hrs at 27° C. to “temperature-correct” […]F508-CFTR. The cells were subsequently rinsed 3× with Krebs Ringers solution and loaded with the voltage-sensitive dyes. To activate […]F508-CFTR, 10 µM forskolin and the CFTR potentiator, genistein (20 µM), were added along with Cl^−-free medium to each well. The addition of Cl^−-free medium promoted Cl^− efflux in response to […]F508-CFTR activation and the resulting membrane depolarization was optically monitored using the FRET-based voltage-sensor dyes.
To identify potentiators of […]F508-CFTR, a double-addition HTS assay format was developed. During the first addition, a Cl^−-free medium with or without test compound was added to each well. After 22 sec, a second addition of Cl^−-free medium containing 2-10 µM forskolin was added to activate […]F508-CFTR. The extracellular Cl^− concentration following both additions was 28 mM, which promoted Cl^− efflux in response to […]F508-CFTR activation and the resulting membrane depolarization was optically monitored using the FRET-based voltage-sensor dyes.
Bath Solution #1: (in mM) NaCl 160, KCl 4.5, CaCl2 2, MgCl2 1, HEPES 10, pH 7.4 with NaOH.
Chloride-free bath solution: Chloride salts in Bath Solution #1 are substituted with gluconate salts.
CC2-DMPE: Prepared as a 10 mM stock solution in DMSO and stored at −20° C.
DiSBAC2(3): Prepared as a 10 mM stock in DMSO and stored at −20° C.
NIH3T3 mouse fibroblasts stably expressing […]F508-CFTR are used for optical measurements of membrane potential. The cells are maintained at 37° C. in 5% CO2 and 90% humidity in Dulbecco's modified Eagle's medium supplemented with 2 mM glutamine, 10% fetal bovine serum, 1× NEAA, […]-ME, 1× pen/strep, and 25 mM HEPES in 175 cm^2 culture flasks. For all optical assays, the cells were seeded at 30,000/well in 384-well matrigel-coated plates and cultured for 2 hrs at 37° C. before culturing at 27° C. for 24 hrs for the potentiator assay. For the correction assays, the cells are cultured at 27° C. or 37° C. with and without compounds for 16-24 hoursB.

T1 sequence (P13569 with tags, fused parts or gaps DEL508-508): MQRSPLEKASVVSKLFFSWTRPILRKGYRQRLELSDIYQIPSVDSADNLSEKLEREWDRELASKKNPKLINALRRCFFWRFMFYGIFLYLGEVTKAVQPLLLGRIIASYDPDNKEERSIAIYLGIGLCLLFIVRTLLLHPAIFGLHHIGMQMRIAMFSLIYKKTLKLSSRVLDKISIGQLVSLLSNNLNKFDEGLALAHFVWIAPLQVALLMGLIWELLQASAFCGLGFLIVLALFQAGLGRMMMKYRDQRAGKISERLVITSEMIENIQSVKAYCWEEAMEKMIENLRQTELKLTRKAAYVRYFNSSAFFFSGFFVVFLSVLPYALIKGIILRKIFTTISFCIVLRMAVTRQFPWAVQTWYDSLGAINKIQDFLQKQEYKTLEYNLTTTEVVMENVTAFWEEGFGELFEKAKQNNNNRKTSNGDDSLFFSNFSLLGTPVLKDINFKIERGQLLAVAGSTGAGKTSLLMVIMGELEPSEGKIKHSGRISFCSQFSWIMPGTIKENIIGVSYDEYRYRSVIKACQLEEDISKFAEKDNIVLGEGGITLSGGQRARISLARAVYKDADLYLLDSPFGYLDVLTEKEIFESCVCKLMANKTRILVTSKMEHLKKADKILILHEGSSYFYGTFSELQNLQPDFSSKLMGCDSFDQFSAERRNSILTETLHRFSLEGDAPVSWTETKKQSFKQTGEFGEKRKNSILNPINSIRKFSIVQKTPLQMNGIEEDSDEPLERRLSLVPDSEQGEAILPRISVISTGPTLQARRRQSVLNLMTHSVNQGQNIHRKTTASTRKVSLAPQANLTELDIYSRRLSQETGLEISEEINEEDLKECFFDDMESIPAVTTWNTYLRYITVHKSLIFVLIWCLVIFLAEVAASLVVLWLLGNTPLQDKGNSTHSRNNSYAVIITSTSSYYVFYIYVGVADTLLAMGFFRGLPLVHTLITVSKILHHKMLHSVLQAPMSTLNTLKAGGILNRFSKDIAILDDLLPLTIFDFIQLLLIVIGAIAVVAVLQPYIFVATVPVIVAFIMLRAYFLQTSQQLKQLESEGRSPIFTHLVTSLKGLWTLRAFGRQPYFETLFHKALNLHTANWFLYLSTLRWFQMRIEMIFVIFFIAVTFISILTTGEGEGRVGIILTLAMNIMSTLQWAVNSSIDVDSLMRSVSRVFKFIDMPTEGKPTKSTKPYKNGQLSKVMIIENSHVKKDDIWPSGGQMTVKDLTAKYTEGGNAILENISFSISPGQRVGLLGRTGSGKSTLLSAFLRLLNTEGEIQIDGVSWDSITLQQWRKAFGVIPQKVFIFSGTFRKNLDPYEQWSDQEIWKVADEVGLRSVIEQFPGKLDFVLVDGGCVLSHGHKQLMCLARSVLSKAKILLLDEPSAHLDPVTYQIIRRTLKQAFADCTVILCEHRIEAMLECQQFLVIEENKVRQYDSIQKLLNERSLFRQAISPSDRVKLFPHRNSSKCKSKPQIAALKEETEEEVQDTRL

SMILES: O=C(c1cc(-c2ccccc2)nc(N2CC=CC2)n1)N1CC=CC1 [Compound 93]
- Efficacy: ++ (++ corresponds to Efficacy between 100 and 50)
- pEC50: < 5.30

SMILES: CCN(CC)c1nc(C(N)=O)cc(-c2cccc(C)c2)n1 [Compound 56]
- Efficacy: +++ (+++ corresponds to Efficacy greater than 100)
- pEC50: 5.30 to 6.00

SMILES: CCN(CC)c1nc(C(N)=O)cc(-c2cccc(OC)c2)n1 [Compound 74]
- Efficacy: +++ (+++ corresponds to Efficacy greater than 100)
- pEC50: 5.30 to 6.00

SMILES: COc1cccc(-c2cc(C(N)=O)nc(NCC3CC3)n2)c1 [Compound 203]
- Efficacy: +++ (+++ corresponds to Efficacy greater than 100)
- pEC50: < 5.30

SMILES: NC(=O)c1cc(-c2ccccc2)nc(-n2ccnc2)n1 [Compound 58]
- Efficacy: + (+ corresponds to Efficacy less than 50)
- pEC50: < 5.30

SMILES: CN(Cc1cccnc1)c1nc(C(N)=O)cc(-c2ccccc2)n1 [Compound 18]
- Efficacy: ++ (++ corresponds to Efficacy between 100 and 50)
- pEC50: < 5.30

SMILES: NC(=O)c1cc(-c2ccccc2)nc(N2CCCC2)n1 [Compound 26]
- Efficacy: ++ (++ corresponds to Efficacy between 100 and 50)
- pEC50: 5.30 to 6.00

SMILES: COc1cccc(-c2cc(C(N)=O)nc(N3CCCCC3)n2)c1 [Compound 168]
- Efficacy: +++ (+++ corresponds to Efficacy greater than 100)
- pEC50: < 5.30

SMILES: CCN(Cc1ccccc1)c1nc(C(N)=O)cc(-c2ccccc2)n1 [Compound 50]
- Efficacy: +++ (+++ corresponds to Efficacy greater than 100)
- pEC50: > 6.00

SMILES: CC1CCN(c2nc(C(N)=O)cc(-c3ccccc3)n2)CC1 [Compound 165]
- Efficacy: +++ (+++ corresponds to Efficacy greater than 100)
- pEC50: < 5.30

SMILES: COc1cccc(-c2cc(C(N)=O)nc(N3CCOCC3)n2)c1 [Compound 211]
- Efficacy: ++ (++ corresponds to Efficacy between 100 and 50)
- pEC50: < 5.30

SMILES: NC(=O)c1cc(-c2ccccc2)nc(N2CCCCCCC2)n1 [Compound 86]
- Efficacy: ++ (++ corresponds to Efficacy between 100 and 50)
- pEC50: > 6.00

SMILES: CN(C)C(=O)c1cc(-c2ccccc2)nc(NCc2ccco2)n1 [Compound 128]
- Efficacy: + (+ corresponds to Efficacy less than 50)
- pEC50: < 5.30

SMILES: CCN(CC)c1nc(C(N)=O)cc(-c2cc3ccccc3s2)n1 [Compound 81]
- Efficacy: +++ (+++ corresponds to Efficacy greater than 100)
- pEC50: 5.30 to 6.00

SMILES: CCN(CCO)c1nc(C(N)=O)cc(-c2cccc(OC)c2)n1 [Compound 123]
- Efficacy: + (+ corresponds to Efficacy less than 50)
- pEC50: < 5.30

SMILES: COc1ccc(-c2cc(C(N)=O)nc(N3CC=CCC3)n2)cc1 [Compound 129]
- Efficacy: ++ (++ corresponds to Efficacy between 100 and 50)
- pEC50: < 5.30

SMILES: Cc1csc(-c2cc(C(N)=O)nc(N3CCCCC3)n2)c1 [Compound 70]
- Efficacy: + (+ corresponds to Efficacy less than 50)
- pEC50: 5.30 to 6.00

SMILES: C=CCNc1nc(C(N)=O)cc(-c2ccc(OC)cc2)n1 [Compound 220]
- Efficacy: + (+ corresponds to Efficacy less than 50)
- pEC50: < 5.30

SMILES: C=CCN(CC=C)c1nc(C(N)=O)cc(-c2ccccc2)n1 [Compound 69]
- Efficacy: +++ (+++ corresponds to Efficacy greater than 100)
- pEC50: 5.30 to 6.00

SMILES: CN(CC#N)c1nc(C(N)=O)cc(-c2ccccc2)n1 [Compound 83]
- Efficacy: + (+ corresponds to Efficacy less than 50)
- pEC50: < 5.30

SMILES: NC(=O)c1cc(-c2cc3ccccc3s2)nc(N2CCCCC2)n1 [Compound 170]
- Efficacy: + (+ corresponds to Efficacy less than 50)
- pEC50: 5.30 to 6.00

SMILES: Cc1cc(-c2cc(C(N)=O)nc(N3CCCCC3)n2)ccc1F [Compound 175]
- Efficacy: ++ (++ corresponds to Efficacy between 100 and 50)
- pEC50: < 5.30
